US20230123601A1, “PHARMACEUTICAL COMBINATION OF ANTIVIRAL AGENTS TARGETING HBV AND/OR AN IMMUNE MODULATOR FOR TREATMENT OF HBV” (priority 2019, published 2023)

Test system: HBV
Experiment: HBsAg levels in serum of AAV/HBV mice (CLIA)
Type: in vivo, C57BL/6 mice
Parameters: HBsAg levels in serum (Average ± SD): scale not given here
From the text: The AAV-HBV mouse model is generated by injecting C57BL/6 mice with recombinant adeno-associated virus harboring a replicable HBV genome (AAV-HBV). The rAAV8-1.3 HBV ayw virus stock was purchased from Beijing FivePlus Molecular Medicine Institute (Beijing, China). The animals (male, aged 4-5 weeks upon arrival) were purchased from SLAC Laboratory Animal Co. Ltd (Shanghai, China), acclimatized in the animal facility for 5-7 days, and then injected with 1×10^11 vector genome of AAV-HBV (diluted in 200 μL of PBS) through the tail vein. Persistence expression of HBV genome can be established after three weeks, with high levels of HBV viral markers including HBV DNA, HBsAg, and HBeAg in mouse serum. With stable HBV viremia and competent immune system of the C57BL/6 mice, the AAV-HBV mouse model was used to evaluate the in vivo anti-HBV efficacy of the compounds. The in-life part of the AAV-HBV study was conducted through contracted service at Covance Pharmaceutical Research and Development (Shanghai) Co. Ltd. (Covance Shanghai) and the post-life analysis using the serum was performed internally at Roche Innovation Center Shanghai (RICS).
Seven days before compound treatment, blood samples were collected for serum preparation (˜15 μL), and based on HBV DNA, HBsAg levels in serum and body weight, the AAV-HBV infected animals were stratified into the different treatment groups.
Saline (Group 01) and anti-HBV ASO of CMP ID NO: 15_1 at 1.5 or 7.5 mg/kg were dosed sub subcutaneously once a week during Day 0-49 on Days 0, 7, 14, 21, 28, 35, 42 and 49. TLR7 agonist of CMP ID NO: VI 100 mg/kg was administered by oral gavage once every other day during Day 0-55 (QOD) or once weekly during Day 0-49 on Days 0, 7, 14, 21, 28, 35, 42 and 49 (QW). The animals were weekly bled via retro-orbital sinus for sample collection throughout the study.
Serum HBsAg levels were determined in the serum of infected AAV-HBV mouse using the HBsAg chemoluminescence immunoassay (CLIA) (Autobio diagnostics Co. Ltd., Zhengzhou, China, Cat. no. CL0310-2), according to the manufacturer's protocol. Briefly, 50 μl of serum was transferred to the antibody coated microtiter plate and 50 μl of enzyme conjugate reagent was added. The plate was incubated for 60 min on a shaker at room temperature before all wells were washed six times with washing buffer using an automatic washer. 25 μl of substrate A and then 25 μl of substrate B was added to each well. The plate was incubated for 10 min at RT before luminescence was measured using an Envision luminescence reader (Perkin Elmer). HBsAg is given in the unit IU/ml; where 1 ng HBsAg=1.14 IU.
To evaluate the combination of the anti-HBV ASO and the TLR7 agonist in an in vivo system, a mouse model of chronic HBV infection was used. In the AAV/HBV mouse model described in the Materials and Method a persistent HBV infection is established resulting in expression of viral markers (HBsAg, HBeAg, HBV DNA) detectable in plasma. The effect on these viral markers upon treatment with the anti-HBV ASO of CMP ID NO: 15_1 (table 2, and FIG. 4) dosed at 1.5 mg/kg or 7.5 mg/kg and the TLR7 agonist of CMP ID NO: VI (table 3) dosed with […] every other day (QOD) or once weekly (QW) in monotherapy or in combination has been evaluated.

CC[C@H](OC(C)=O)[C@@H]1C[C@@H](O)[C@H](n2c(=O)sc3cnc(N)nc32)O1 [CMP ID NO: VI, [(1S)-1-[(2S,4R,5R)-5-(5-amino-2-oxo-thiazolo[4,5-d]pyrimidin-3-yl)-4-hydroxy-tetrahydrofuran-2-yl]propyl] acetate]
HBsAg levels in serum (Average ± SD) (D56, 15_1 7.5 mg/kg weekly, VI 100 mg/kg QW, or combination of both): 2.13 ± 1.00 | HBsAg levels in serum (Average ± SD) (D63, 15_1 1.5 mg/kg weekly, VI 100 mg/kg QOD, or combination of both): 1.61 ± 0.96 | HBsAg levels in serum (Average ± SD) (D63, 15_1 1.5 mg/kg weekly, VI 100 mg/kg QW, or combination of both): 2.43 ± 1.14 | HBsAg levels in serum (Average ± SD) (D63, 15_1 7.5 mg/kg weekly, VI 100 mg/kg QOD, or combination of both): 1.61 ± 0.96 | HBsAg levels in serum (Average ± SD) (D63, 15_1 7.5 mg/kg weekly, VI 100 mg/kg QW, or combination of both): 2.43 ± 1.14 | HBsAg levels in serum (Average ± SD) (D70, 15_1 1.5 mg/kg weekly, VI 100 mg/kg QOD, or combination of both): 1.9 ± 1.23 | HBsAg levels in serum (Average ± SD) (D70, 15_1 1.5 mg/kg weekly, VI 100 mg/kg QW, or combination of both): 2.48 ± 1.23 | HBsAg levels in serum (Average ± SD) (D70, 15_1 7.5 mg/kg weekly, VI 100 mg/kg QOD, or combination of both): 1.90 ± 1.23 | HBsAg levels in serum (Average ± SD) (D70, 15_1 7.5 mg/kg weekly, VI 100 mg/kg QW, or combination of both): 2.48 ± 1.23 | HBsAg levels in serum (Average ± SD) (D77, 15_1 1.5 mg/kg weekly, VI 100 mg/kg QOD, or combination of both): 1.91 ± 1.18 | HBsAg levels in serum (Average ± SD) (D77, 15_1 1.5 mg/kg weekly, VI 100 mg/kg QW, or combination of both): 2.41 ± 1.16 | HBsAg levels in serum (Average ± SD) (D77, 15_1 7.5 mg/kg weekly, VI 100 mg/kg QOD, or combination of both): 1.91 ± 1.18 | HBsAg levels in serum (Average ± SD) (D77, 15_1 7.5 mg/kg weekly, VI 100 mg/kg QW, or combination of both): 2.41 ± 1.16 | HBsAg levels in serum (Average ± SD) (D84, 15_1 1.5 mg/kg weekly, VI 100 mg/kg QOD, or combination of both): 2.25 ± 1.16 | HBsAg levels in serum (Average ± SD) (D84, 15_1 1.5 mg/kg weekly, VI 100 mg/kg QW, or combination of both): 2.66 ± 1.15 | HBsAg levels in serum (Average ± SD) (D84, 15_1 7.5 mg/kg weekly, VI 100 mg/kg QOD, or combination of both): 2.25 ± 1.16 | HBsAg levels in serum (Average ± SD) (D84, 15_1 7.5 mg/kg weekly, VI 100 mg/kg QW, or combination of both): 2.66 ± 1.15 | HBsAg levels in serum (Average ± SD) (D91, 15_1 1.5 mg/kg weekly, VI 100 mg/kg QOD, or combination of both): 2.05 ± 1.35 | HBsAg levels in serum (Average ± SD) (D91, 15_1 1.5 mg/kg weekly, VI 100 mg/kg QW, or combination of both): 2.66 ± 1.44 | HBsAg levels in serum (Average ± SD) (D91, 15_1 7.5 mg/kg weekly, VI 100 mg/kg QOD, or combination of both): 2.05 ± 1.35 | HBsAg levels in serum (Average ± SD) (D91, 15_1 7.5 mg/kg weekly, VI 100 mg/kg QW, or combination of both): 2.66 ± 1.44 | HBsAg levels in serum (Average ± SD) (D98, 15_1 1.5 mg/kg weekly, VI 100 mg/kg QOD, or combination of both): 2.36 ± 1.26 | HBsAg levels in serum (Average ± SD) (D98, 15_1 1.5 mg/kg weekly, VI 100 mg/kg QW, or combination of both): 2.83 ± 1.16 | HBsAg levels in serum (Average ± SD) (D98, 15_1 7.5 mg/kg weekly, VI 100 mg/kg QOD, or combination of both): 2.36 ± 1.26 | HBsAg levels in serum (Average ± SD) (D98, 15_1 7.5 mg/kg weekly, VI 100 mg/kg QW, or combination of both): 2.83 ± 1.16 | HBsAg levels in serum (Average ± SD) (D105, 15_1 1.5 mg/kg weekly, VI 100 mg/kg QOD, or combination of both): 2.41 ± 1.18 | HBsAg levels in serum (Average ± SD) (D105, 15_1 1.5 mg/kg weekly, VI 100 mg/kg QW, or combination of both): 2.81 ± 1.1 | HBsAg levels in serum (Average ± SD) (D105, 15_1 7.5 mg/kg weekly, VI 100 mg/kg QOD, or combination of both): 2.41 ± 1.18 | HBsAg levels in serum (Average ± SD) (D105, 15_1 7.5 mg/kg weekly, VI 100 mg/kg QW, or combination of both): 2.81 ± 1.10 | HBsAg levels in serum (Average ± SD) (D111, 15_1 1.5 mg/kg weekly, VI 100 mg/kg QOD, or combination of both): 2.69 ± 1.38 | HBsAg levels in serum (Average ± SD) (D111, 15_1 1.5 mg/kg weekly, VI 100 mg/kg QW, or combination of both): 3.1 ± 1.12 | HBsAg levels in serum (Average ± SD) (D111, 15_1 7.5 mg/kg weekly, VI 100 mg/kg QOD, or combination of both): 2.69 ± 1.38 | HBsAg levels in serum (Average ± SD) (D111, 15_1 7.5 mg/kg weekly, VI 100 mg/kg QW, or combination of both): 3.10 ± 1.12 | initial rate of reduction in HBsAg (TLR7 agonist alone, FIG. 10A): slow initial rate of reduction in HBsAg | time of lowest HBsAg (TLR7 agonist alone, FIG. 10A (100 mg/kg QOD)): 42 days | suppression of HBsAg (TLR7 agonist at any of the doses): not capable of suppressing HBsAg to a level below the detection limit
